Here are results for three compounds from ChEMBL document CHEMBL3045480, “Goat brain enkephalin degrading enzyme: interaction with analgesic and antihypertensive drugs” (Med Chem Res, 2011).

The assay concerns the target T1, Dipeptidyl peptidase 3 (Bos mutus) (UniProt L8I2E6).
T1 sequence (whole entry): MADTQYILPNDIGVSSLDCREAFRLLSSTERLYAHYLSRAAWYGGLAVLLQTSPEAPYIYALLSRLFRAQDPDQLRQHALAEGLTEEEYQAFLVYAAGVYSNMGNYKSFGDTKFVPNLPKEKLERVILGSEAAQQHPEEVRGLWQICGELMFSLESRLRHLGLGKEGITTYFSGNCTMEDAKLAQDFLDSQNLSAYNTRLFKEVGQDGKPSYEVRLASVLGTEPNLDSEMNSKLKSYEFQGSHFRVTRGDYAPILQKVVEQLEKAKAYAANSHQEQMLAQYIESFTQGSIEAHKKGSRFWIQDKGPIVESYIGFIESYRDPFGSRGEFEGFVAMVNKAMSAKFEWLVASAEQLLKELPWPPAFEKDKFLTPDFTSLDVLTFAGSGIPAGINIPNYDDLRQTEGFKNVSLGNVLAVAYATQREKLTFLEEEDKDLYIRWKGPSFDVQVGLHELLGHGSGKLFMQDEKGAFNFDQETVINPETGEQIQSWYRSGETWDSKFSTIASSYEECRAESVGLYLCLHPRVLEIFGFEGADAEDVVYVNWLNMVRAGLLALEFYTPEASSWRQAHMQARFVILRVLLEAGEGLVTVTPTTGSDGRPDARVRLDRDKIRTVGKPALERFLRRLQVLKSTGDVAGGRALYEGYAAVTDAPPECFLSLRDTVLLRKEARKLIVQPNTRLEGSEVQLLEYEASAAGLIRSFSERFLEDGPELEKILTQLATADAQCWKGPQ
Briefly: Inhibition of Capra hircus (goat) brain DPP-3 using Arg-Arg-4mbetaNA as substrate assessed as liberation of 4mbetaNA from substrate. To be noted: target entry is the homologue from another species.
`O=C(O)Cc1ccccc1Nc1c(Cl)cccc1Cl`: the inhibition is 85%.

On to `CS(=O)(=O)c1ccc(C2=C(c3ccccc3)C(=O)OC2)cc1`, for which the inhibition worked out at 71%. Take `CC(=O)Nc1ccc(O)cc1`: the inhibition is 96%.

One may read the inhibition as the percentage by which the read-out fell short of the control.
